Reference: the NIST ThermoML archive (doi:10.1016/j.jct.2018.09.027)

Experiment: molar heat capacity at constant pressure
Settings: 100 kPa, Crystal, DSC

O=C(O)c1cc(O)c(O)c(O)c1 [3,4,5-trihydroxybenzoic acid]
Settings | molar heat capacity at constant pressure [J/K/mol]
263.15 K | 178.8
264.15 K | 179.31
265.15 K | 179.82
266.15 K | 180.5
267.15 K | 181.18
268.15 K | 181.86
269.15 K | 182.54
270.15 K | 183.05
271.15 K | 183.73
272.15 K | 184.41
273.15 K | 184.92
274.15 K | 185.77
275.15 K | 185.6
276.15 K | 186.96
277.15 K | 187.3
278.15 K | 188.15
279.15 K | 188.49
280.15 K | 189
281.15 K | 189.34
282.15 K | 189.85
283.15 K | 190.36
284.15 K | 191.21
285.15 K | 191.55
286.15 K | 192.24
287.15 K | 193.09
288.15 K | 193.6
289.15 K | 194.28
290.15 K | 194.79
291.15 K | 195.64
292.15 K | 196.32
293.15 K | 197
294.15 K | 197.51
295.15 K | 198.19
296.15 K | 198.7
297.15 K | 199.38
298.15 K | 199.55
299.15 K | 200.06
300.15 K | 200.57
301.15 K | 201.25
302.15 K | 201.76
303.15 K | 202.44
304.15 K | 203.12
305.15 K | 203.8
306.15 K | 204.31
307.15 K | 204.65
308.15 K | 205.33
309.15 K | 206.18
310.15 K | 206.7
311.15 K | 207.04
312.15 K | 207.38
313.15 K | 208.23
314.15 K | 208.91
315.15 K | 209.08
316.15 K | 209.76
317.15 K | 210.61
318.15 K | 211.12
319.15 K | 211.46
320.15 K | 211.8
321.15 K | 212.14
322.15 K | 212.99
323.15 K | 211.97
324.15 K | 212.22
325.15 K | 212.9
326.15 K | 213.59
327.15 K | 214.27
328.15 K | 214.61
329.15 K | 215.09
330.15 K | 215.6
331.15 K | 216.11
332.15 K | 216.39
333.15 K | 216.9
334.15 K | 217.47
335.15 K | 217.92
336.15 K | 217.16
337.15 K | 217.71
338.15 K | 218.35
339.15 K | 218.99
340.15 K | 219.58
341.15 K | 220.09
342.15 K | 220.69
343.15 K | 221.58
344.15 K | 220.47
345.15 K | 220.64
346.15 K | 221.55
347.15 K | 222.29
348.15 K | 222.74
349.15 K | 223.31
350.15 K | 223.76
351.15 K | 224.44
352.15 K | 225.58
353.15 K | 224.69
354.15 K | 225.11
355.15 K | 225.75
356.15 K | 226.47
357.15 K | 226.9
358.15 K | 227.28
359.15 K | 227.92
360.15 K | 228.68
361.15 K | 229.15
362.15 K | 229.7
363.15 K | 229.83
364.15 K | 230.21
365.15 K | 230.81
366.15 K | 231.19
